pIC50: −log10 of the molar value.
Molecular target: T1, AKT1-E17K (Homo sapiens, UniProt P31749, E17K)
T1 construct: host or cells: HEK-293 (ATCC CRL-1573)
Test: NanoBRET Target Engagement (TE) Assay
Type: cell-based
From the text: The NanoBRET™ Target Engagement (TE) Intracellular Kinase Assays are based on the NanoBRET™ System (Promega Corporation), an energy transfer technique designed to measure molecular proximity in living cells. The NanoBRET™ TE Assays measure the apparent affinity of test compounds by competitive displacement of the NanoBRET™ tracer compound, which is a cell permeable molecule engineered to be reversibly bound to a NanoLuc® luciferase-kinase fusion expressed in cells. For compound screening, when a test compound binds to the selected kinase, the BRET signal is attenuated. […] All cells were evaluated for viability prior to transfection and optimization of the transfection was done prior to experimentation. […] Following transfection, cells were washed and resuspended in Opti-MEM. NanoBRET assays were performed in white, 384-well plates (Corning) at a density of […]. All example compounds were prepared as concentrated stock solutions in DMSO (Sigma-Aldrich). Compounds are dissolved in DMSO to make 10 mM stock solution. […] A Labcyte ECHO 550 compound dispenser was used to facilitate compound transfer directly to cells. Cells were equilibrated for 2 hr with energy transfer probes and example compound prior to BRET measurements. […] For target engagement analysis, the energy transfer probes were added to the cells at concentrations optimized for the target in question (AKT E17K). Following compound incubation, NanoBRET NanoGlo Substrate (Promega Cat #N157D) and Extracellular Nanoluc Inhibitor (Promega Cat #N235C) was added according to the manufacturer's recommended protocol, and luminescence was measured on Envision Reader (Perkin Elmer) Multimode Luminometer equipped with 450 nmBPfilter (donor) and 600 nmLPfilter (acceptor), using 0.5 s integration time. Milli-BRET units (mBU) are calculated by multiplying the raw BRET values by 1000. Apparent tracer affinity values (EC50) were determined using the sigmoidal dose-response (variable slope). Competitive displacement data were then plotted and data were fit to determine the EC50 value for each example compound.

T1 sequence (P31749 whole entry E17K): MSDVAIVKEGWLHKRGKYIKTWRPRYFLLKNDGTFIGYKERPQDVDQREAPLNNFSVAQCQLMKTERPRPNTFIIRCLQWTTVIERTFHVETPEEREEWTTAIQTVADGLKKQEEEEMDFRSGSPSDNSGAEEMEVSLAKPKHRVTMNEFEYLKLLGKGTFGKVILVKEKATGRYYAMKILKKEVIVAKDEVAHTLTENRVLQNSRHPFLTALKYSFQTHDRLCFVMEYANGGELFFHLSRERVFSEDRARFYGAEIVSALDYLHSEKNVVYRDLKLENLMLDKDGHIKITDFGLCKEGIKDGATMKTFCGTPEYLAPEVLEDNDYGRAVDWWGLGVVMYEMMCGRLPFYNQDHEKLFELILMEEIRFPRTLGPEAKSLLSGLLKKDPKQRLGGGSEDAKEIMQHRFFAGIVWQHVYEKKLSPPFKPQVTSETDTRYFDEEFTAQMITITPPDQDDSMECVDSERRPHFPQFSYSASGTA

SMILES | pIC50
C=Cc1cc(C=O)c(O)cc1N1CCN(Cc2ccc(-n3c(-c4cccnc4N)nc4ccc(-c5ccccc5)nc43)cc2)CC1 [Example 28, 4-(4-(4-(2-(2-Aminopyridin-3-yl)-5-phenyl-3H-imidazo[4,5-b]pyridin-3-yl)benzyl)piperazin-1-yl)-2-hydroxy-5-vinylbenzaldehyde] | 6.22 to 7.22
Nc1ncccc1-c1nc2ccc(-c3ccc(Cl)cc3)nc2n1-c1ccc(CN2CCN(c3ccc(O)c(C=O)c3)CC2)cc1 [Example 149, 5-(4-(4-(2-(2-aminopyridin-3-yl)-5-(4-chlorophenyl)-3H-imidazo[4,5-b]pyridin-3-yl)benzyl)piperazin-1-yl)-2-hydroxybenzaldehyde] | < 6.22
N#Cc1ccccc1-c1ccc2nc(-c3cccnc3N)n(-c3ccc(CN4CCN(C(=O)c5ccc(O)c(C=O)c5)CC4)cc3)c2n1 [Example 36, 2-(2-(2-aminopyridin-3-yl)-3-(4-((4-(3-formyl-4-hydroxybenzoyl)piperazin-1-yl)methyl)phenyl)-3H-imidazo[4,5-b]pyridin-5-yl)benzonitrile] | < 6.22
N#Cc1ccc(-c2ccc3nc(-c4cccnc4N)n(-c4ccc(CN5CCN(C(=O)c6ccc(C=O)c(O)c6)CC5)cc4)c3n2)cc1 [Example 39, 4-(2-(2-Aminopyridin-3-yl)-3-(4-((4-(4-formyl-3-hydroxybenzoyl)piperazin-1-yl)methyl)phenyl)-3H-imidazo[4,5-b]pyridin-5-yl)benzonitrile] | 6.22 to 7.22
Nc1ncccc1-c1nc2ccc(-c3ccccc3)nc2n1-c1ccc(COc2ccc(O)c(C=O)c2)cc1 [Example 139, 5-((4-(2-(2-Aminopyridin-3-yl)-5-phenyl-3H-imidazo[4,5-b]pyridin-3-yl)benzyl)oxy)-2-hydroxybenzaldehyde] | < 6.22
Nc1ncccc1-c1nc2ccc(-c3ccccc3)nc2n1-c1ccc(CN2CCC3(CC2)CCN(C(=O)c2ccc(O)c(C=O)c2)C3)cc1 [Example 74, 5-(8-(4-(2-(2-aminopyridin-3-yl)-5-phenyl-3H-imidazo[4,5-b]pyridin-3-yl)benzyl)-2,8-diazaspiro[4.5]decane-2-carbonyl)-2-hydroxybenzaldehyde] | 7.22 to 7.82
Nc1ncccc1-c1nc2ccc(-c3cccc(F)c3)nc2n1-c1ccc(CN2CCN(C(=O)c3ccc(O)c(C=O)c3)CC2)cc1 [Example 40, 5-(4-(4-(2-(2-Aminopyridin-3-yl)-5-(3-fluorophenyl)-3H-imidazo[4,5-b]pyridin-3-yl)benzyl)piperazine-1-carbonyl)-2-hydroxybenzaldehyde] | 6.22 to 7.22
Nc1ncccc1-c1nc2ccc(-c3ccc(F)cc3)nc2n1-c1ccc(CN2CCN(C(=O)c3ccc(C=O)c(O)c3)CC2)cc1 [Example 144, 4-(4-(4-(2-(2-Aminopyridin-3-yl)-5-(4-fluorophenyl)-3H-imidazo[4,5-b]pyridin-3-yl)benzyl)piperazine-1-carbonyl)-2-hydroxybenzaldehyde] | 6.22 to 7.22
Nc1ncccc1-c1nc2ccc(-c3ccc[nH]c3=O)nc2n1-c1ccc(CN2CCN(C(=O)c3ccc(O)c(C=O)c3)CC2)cc1 [Example 14, 5-(4-(4-(2-(2-Aminopyridin-3-yl)-5-(2-oxo-1,2-dihydropyridin-3-yl)-3H-imidazo[4,5-b]pyridin-3-yl)benzyl)piperazine-1-carbonyl)-2-hydroxybenzaldehyde] | < 6.22
Nc1ncccc1-c1nc2ccc(-c3ccccc3)nc2n1-c1ccc(CN2CC3(C2)CN(C(=O)c2ccc(O)c(C=O)c2)C3)cc1 [Example 62, 5-(6-(4-(2-(2-Aminopyridin-3-yl)-5-phenyl-3H-imidazo[4,5-b]pyridin-3-yl)benzyl)-2,6-diazaspiro[3.3]heptane-2-carbonyl)-2-hydroxybenzaldehyde] | > 7.82
Nc1ncccc1-c1nc2ccc(-c3ccccc3)nc2n1-c1ccc(CN2CC3(CC(NC(=O)c4ccc(O)c(C=O)c4)C3)C2)cc1 [Example 69, N-(2-(4-(2-(2-Aminopyridin-3-yl)-5-phenyl-3H-imidazo[4,5-b]pyridin-3-yl)benzyl)-2-azaspiro[3.3]heptan-6-yl)-3-formyl-4-hydroxybenzamide] | > 7.82

Now from value to molecule:

pIC50 | SMILES
7.22 to 7.82 | Nc1ncccc1-c1nc2ccc(-c3ccccc3)nc2n1-c1ccc(CN2CCN(c3ccc(C=O)c(O)c3F)CC2)cc1 [Example 26, 4-(4-(4-(2-(2-Aminopyridin-3-yl)-5-phenyl-3H-imidazo[4,5-b]pyridin-3-yl)benzyl)piperazin-1-yl)-3-fluoro-2-hydroxybenzaldehyde]
6.22 to 7.22 | Nc1ncccc1-c1nc2ccc(-c3ccccc3)nc2n1-c1ccc(CN2CCC3(CCN(c4ccc(C=O)c(O)c4)CC3)C2)cc1 [Example 85, 4-(2-(4-(2-(2-Aminopyridin-3-yl)-5-phenyl-3H-imidazo[4,5-b]pyridin-3-yl)benzyl)-2,8-diazaspiro[4.5]decan-8-yl)-2-hydroxybenzaldehyde]
6.22 to 7.22 | Nc1ncccc1-c1nc2ccc(-c3ccccc3)nc2n1-c1ccc(CN2CCC(NC(=O)c3ccc(C=O)c(O)c3)CC2)cc1 [Example 8, N-(1-(4-(2-(2-Aminopyridin-3-yl)-5-phenyl-3H-imidazo[4,5-b]pyridin-3-yl)benzyl)piperidin-4-yl)-4-formyl-3-hydroxybenzamide]
7.22 to 7.82 | Nc1ncccc1-c1nc2ccc(-c3ccccc3)nc2n1-c1ccc(CN2CCC3(C2)CN(c2ccc(C=O)c(O)c2)C3)cc1 [Example 79, 4-(6-(4-(2-(2-Aminopyridin-3-yl)-5-phenyl-3H-imidazo[4,5-b]pyridin-3-yl)benzyl)-2,6-diazaspiro[3.4]octan-2-yl)-2-hydroxybenzaldehyde]
6.22 to 7.22 | Nc1ncccc1-c1nc2ccc(-c3ccccc3)nc2n1-c1ccc(CN2C[C@H]3C[C@@H]2CN3C(=O)c2ccc(C=O)c(O)c2)cc1 [Example 56, 4-((1R,4R)-5-(4-(2-(2-Aminopyridin-3-yl)-5-phenyl-3H-imidazo[4,5-b]pyridin-3-yl)benzyl)-2,5-diazabicyclo[2.2.1]heptane-2-carbonyl)-2-hydroxybenzaldehyde]
6.22 to 7.22 | C[C@@H]1CN(Cc2ccc(-n3c(-c4cccnc4N)nc4ccc(-c5ccccc5)nc43)cc2)CCN1c1ccc(C=O)c(O)c1 [Example 104, (R)-4-(4-(4-(2-(2-Aminopyridin-3-yl)-5-phenyl-3H-imidazo[4,5-b]pyridin-3-yl)benzyl)-2-methylpiperazin-1-yl)-2-hydroxybenzaldehyde]
< 6.22 | Nc1ncccc1-c1nc2ccc(-c3ccccc3)nc2n1-c1ccc(CN2CCCCC(NC(=O)c3ccc(C=O)c(O)c3)C2)cc1 (stereo not drawn) [Example 118, N-(1-(4-(2-(2-Aminopyridin-3-yl)-5-phenyl-3H-imidazo[4,5-b]pyridin-3-yl)benzyl)azepan-3-yl)-4-formyl-3-hydroxybenzamide]
6.22 to 7.22 | Nc1ncccc1-c1nc2ccc(-c3ccccc3)nc2n1-c1ccc(CN2CCC3(CCN(C(=O)c4ccc(C=O)c(O)c4)C3)C2)cc1 (stereo not drawn) [Example 81, 4-(7-(4-(2-(2-Aminopyridin-3-yl)-5-phenyl-3H-imidazo[4,5-b]pyridin-3-yl)benzyl)-2,7-diazaspiro[4.4]nonane-2-carbonyl)-2-hydroxybenzaldehyde]
6.22 to 7.22 | C[C@H]1CN(Cc2ccc(-n3c(-c4cccnc4N)nc4ccc(-c5ccccc5)nc43)cc2)CCN1c1ccc(C=O)c(O)c1 [Example 107, (S)-4-(4-(4-(2-(2-aminopyridin-3-yl)-5-phenyl-3H-imidazo[4,5-b]pyridin-3-yl)benzyl)-2-methylpiperazin-1-yl)-2-hydroxybenzaldehyde]
6.22 to 7.22 | Nc1ncccc1-c1nc2ccc(-c3ccccc3)nc2n1-c1ccc(CN2CC[C@@]3(CCN(C(=O)c4ccc(C=O)c(O)c4)C3)C2)cc1 [Example 99, (R)-4-(7-(4-(2-(2-aminopyridin-3-yl)-5-phenyl-3H-imidazo[4,5-b]pyridin-3-yl)benzyl)-2,7-diazaspiro[4.4]nonane-2-carbonyl)-2-hydroxybenzaldehyde]
6.22 to 7.22 | Nc1ncccc1-c1nc2ccc(-c3ccccc3)nc2n1-c1ccc(CN2CCC3(C2)CN(C(=O)c2ccc(C=O)c(O)c2)C3)cc1 [Example 153, 4-(6-(4-(2-(2-aminopyridin-3-yl)-5-phenyl-3H-imidazo[4,5-b]pyridin-3-yl)benzyl)-2,6-diazaspiro[3.4]octane-2-carbonyl)-2-hydroxybenzaldehyde]
6.22 to 7.22 | Nc1ncccc1-c1nc2ccc(-c3ccccc3)nc2n1-c1ccc(CN2CC3(CC(NC(=O)c4ccc(C=O)c(O)c4)C3)C2)cc1 [Example 70, N-(2-(4-(2-(2-Aminopyridin-3-yl)-5-phenyl-3H-imidazo[4,5-b]pyridin-3-yl)benzyl)-2-azaspiro[3.3]heptan-6-yl)-4-formyl-3-hydroxybenzamide]
< 6.22 | Nc1ncccc1-c1nc2ccc(-c3ccc(Cl)cc3)nc2n1-c1ccc(CN2CCN(c3ccc(C=O)c(O)c3)CC2)cc1 [Example 146, 4-(4-(4-(2-(2-aminopyridin-3-yl)-5-(4-chlorophenyl)-3H-imidazo[4,5-b]pyridin-3-yl)benzyl)piperazin-1-yl)-2-hydroxybenzaldehyde]

— patent US20260365647A1, “AKT1 MODULATORS” (Alterome Therapeutics, Inc., priority 2022, published 2026)
